Laboratory results from patent US8088818B2, “Catechol-based derivatives for treating or preventing diabetics” (National Taiwan University, priority 2006, dated 2012).

What was measured:
type I diabetic rats = experiment: Safety evaluation: survival rate of type I diabetic rats; type: in vivo, rat; conditions: for Survival rate (%) of rats: p.o., after seven days
Description: Table 13 is a safety evaluation, wherein the type I diabetic rats are respectively orally administrated with the compound 370G at the dosage of 10 mg/kg and 30 mg/kg.

coronary artery = experiment: Flow rate of the coronary artery in the isolated perfused rat heart (Langendorff); conditions: for coronary flow: isolated Wistar rat heart
Description: Each of the male Wistar rats weighs about 200-250 grams, and is anesthetized with 25 mg/kg pentobarbital and 16 mg/kg heparin by injecting into the abdominal cavity. After falling asleep, separate the cervical vertebra and immediately take the heart out hanging on the constant pouring pressure circulation instrument (Langendorff, AD Instruments Pty Ltd, ML870B2) and fill a 37[…] pouring solution of 95% of oxygen and 5% of carbon dioxide with the artery (119.7 mM NaCl, 23.8 mM NaHCO3, 5.6 mM glucose, 1.2 mM CaCl2, 1.1 mM MgCl2, 0.3 mM NaH2PO4, and 5.0 mM KCl), which washes the heart and clean out the blood water by pouring in a reverse direction. The rate of the reverse pouring is 10 ml/min, followed by maintaining the pouring pressure of the coronary artery at 80 mmHg. After balancing for thirty minutes, measure the rate of the pouring solution flowing in the heart, and observe the change of the rate the pouring solution flowing in the heart while the testing drug is added.

Insulin = Insulin concentration before and after oral administration; type: in vivo, rat
Description: However, it is also observed that the dominant effect for reducing the blood sugar on the type I diabetic rats, which are incapable of secreting insulin.

Type 1 diabetic rats = experiment: Blood sugar lowering in streptozotocin-induced type 1 diabetic rats after oral administration; type: in vivo, rat; conditions: for % decrease in plasma glucose: type 1 diabetic rats, 90 min
Description: (b) Streptozocin-induced type 1 diabetic rats: the male Wistar rats of 8 weeks age undergo a starvation for 72 hours, followed by anaesthetizing the rats by injecting with 30 mg/kg pentobarbital into the abdominal cavity. After the rats fall asleep, 60 mg/kg streptozotocin (STZ) is administrated by an intravenous injection. After a week, phlebotomize and obtain a value of blood sugar by a glucose kit, wherein the glucose kit is further analyzed by Biosystem S.A., Barcelona Spain, BST330. While the value of the blood sugar is greater than 400 mg/dL and the typical three symptoms, eating more, drink more, micturition occur, it is deemed as Type 1 Diabetic rats.
(§1) (d) The administration: Dissolve the medicine equivalently in deionized water, and then administrate the mentioned solution into the normal and diabetic rats by an orally perfusion. Keep with the desired concentration of the perfusion amount by taking suitable amount of the medicine solution according to the weight of the different animal.
(§2) The rats to be experimented should undergo a starvation for 8-12 hours overnight. Next day, the rats are anesthetized with 30 mg/kg pentobarbital by injecting into the abdominal cavity. After the rats fall asleep, fix the rats on the board with the rubber band. Open the groin, find the veins, bleed 0.1 ml blood from an empty stomach, and then feed the medicine into the body of the rats by taking orally. After 90 minutes, bleed and perform a centrifugation (13,000 rpm, 5 minutes) to separate the serum and the plasma. Take the 10 μl supernatant of the serum and add 1 ml reagent of the glucose kit thereinto by gently mixing. React for 5 minutes at 37 °C, followed by detecting the value of the blood sugar by means of BST330 based on the different absorption level. […] The value of the blood sugar (mg/dL) is calculated by comparing the level of redness with contrasting the standard curve.
(§3) (The value of blood sugar at postadministration)−(The value of blood sugar at preadministration)/(The value of blood sugar at preadministration)×100%
(§4) The results of the experiments are presented in the average value±the standard error (mean±SE), and the variations therebetween are evaluated according to the Student's t-test, while the variations thereamong are evaluated according to one-way ANOVA and Bonferroni's t-test, wherein P<0.05 is deemed to have apparent differences.

Normal rats = experiment: Blood sugar lowering in normal rats after oral administration; type: in vivo, rat
Description: (a) Male Wistar rats are provided from the National Laboratory Animal Breeding and Research Center (Taipei, Taiwan), each of whose weight is about 200-250 grams, and the average age thereof is above 8 weeks. They were housed under conditions of constant temperature (25±1[…]) and controlled illumination (light time and dark time are respectively 12 hours). Food and water were available.
as §1, §2, §3, §4

## O=C(/C=C/c1ccc(O)c(O)c1)NCCc1ccccc1 [370G (45)]
Type I diabetic rats; 10 mg/kg
  Survival rate (%) of rats: 100%
Type I diabetic rats; 30 mg/kg
  Survival rate (%) of rats: 100%
Type I diabetic rats; oral 10 mg/kg and 30 mg/kg, seven days
  effect on survival rate (in words): do not affect the survival rate
Coronary artery; Wistar rats, Tables 15 and 16
  effect on coronary flow rate (in words): capable of increasing the coronary flow rate
Coronary artery; conc. 0 (baseline)
  coronary flow: 11.8 ± 1.0 mL/min
Coronary artery; conc. 0.1 (unit printed .[…]M)
  coronary flow: 12.4 ± 1.1 mL/min
Coronary artery; conc. 0.3 (unit printed .[…]M)
  coronary flow: 13.2 ± 1.4 mL/min
Coronary artery; conc. 1 (unit printed .[…]M)
  coronary flow: 15.6 ± 1.2 mL/min
Coronary artery; conc. 3 (unit printed .[…]M)
  coronary flow: 17.4 ± 1.3 mL/min
Coronary artery; conc. 10 (unit printed .[…]M)
  coronary flow: 19.5 ± 0.7 mL/min
Insulin; 1 mg/kg, p.o., post-treatment (30 min)
  Insulin, Post-treatment (30 min): 14.9 ± 3.4 μIU/ml
Insulin; 1 mg/kg, p.o., pre-treatment (baseline)
  Insulin, Pre-treatment: 7.7 ± 1.0 μIU/ml
Insulin; oral 1.0 mg/kg, in 60 minutes
  secretion of insulin (in words): increased
Type 1 diabetic rats; 0.1 mg/kg oral
  % decrease in plasma glucose: 11.8 ± 5.5 %
Type 1 diabetic rats; 0.5 mg/kg oral
  % decrease in plasma glucose: 13.8 ± 4.3 %
Type 1 diabetic rats; 1.0 mg/kg oral
  % decrease in plasma glucose: 11.6 ± 1.7 %
Type 1 diabetic rats; type I diabetic rat
  effect for reducing the blood sugar, compared among rat models: weakest effect
Normal rats; 0.5 mg/kg oral, Table 14
  % decrease in plasma glucose: 32.8 ± 3.4 %
Normal rats; 0.5 mg/kg oral, post-treatment
  Post-treatment Plasma glucose: 81.0 ± 5.7 mg/dL
Normal rats; 0.5 mg/kg oral, pre-treatment (baseline)
  Pre-treatment Plasma glucose: 120.5 ± 5.3 mg/dL
Normal rats; normal rat
  effect for reducing the blood sugar, compared among rat models: strongest effect
Normal rats; normal rats, 0.01 mg/kg oral, 90 min
  % decrease in plasma glucose: 11.4 ± 3.1%
Normal rats; normal rats, 0.05 mg/kg oral, 90 min
  % decrease in plasma glucose: 32.0 ± 1.1 %
Normal rats; normal rats, 0.1 mg/kg oral, 90 min
  % decrease in plasma glucose: 32.9 ± 2.3 %
Normal rats; normal rats, 0.5 mg/kg oral, 90 min
  % decrease in plasma glucose: 32.8 ± 3.4 %
Normal rats; normal rats, 1.0 mg/kg oral, 90 min
  % decrease in plasma glucose: 29.5 ± 1.7 %
Normal rats; normal rats, oral 0.05 to 1.0 mg/kg
  reducing the blood sugar (in words): phenomenon of reducing the blood sugar are shown
